The source of these data is patent publication US9506039B2, “Efficient method for establishing induced pluripotent stem cells” (Kyoto University, priority 2010, dated 2016).

For the experiment, the system named is human dermal fibroblasts (HDF: cell name 1616). Put plainly: iPS cell colony establishment, 3 genes (Oct3/4, Sox2, Klf4) plus added gene or compound. The conditions noted are these: Example 9, FIG. 9; Oct3/4, Sox2, Klf4 plus agent in medium (PS48 10 μM, CHIR99021 1 μM, Wnt3a 10 ng/ml); day 32. Format: cell-based. An excerpt:
The following genes were introduced into human dermal fibroblasts (HDF: cell name 1616, purchased from Cell applications, Inc.) in the same manner as in the aforementioned Example 1.
In addition, the culture condition was changed (5×10^5 cells/well), and the following genes were introduced into human dermal fibroblasts (HDF: cell name 1616, purchased from Cell applications, Inc.) in the same manner.
In the same manner as in the aforementioned Example 1, the following genes were introduced into dermal fibroblasts (HDF: cell name 1616) in the presence of each low-molecular-weight compound.
The following genes were introduced into dermal fibroblasts (HDF: cell name 1616) in the same manner as in the aforementioned Example 1.
The following genes were introduced into human dermal fibroblasts (HDF: cell name 1616) in the same manner as in the aforementioned Example 1.
Furthermore, the following genes were introduced into human dermal fibroblasts (HDF: cell name 1616).

As for `Cc1c[nH]c(-c2cnc(NCCNc3ccc(C#N)cn3)nc2-c2ccc(Cl)cc2Cl)n1` [CHIR99021], the “number of human iPS cell colonies” value is reported as “tended to decrease”.

Regarding `O=C(O)/C=C(/CCc1ccc(Cl)cc1)c1ccccc1` [PS48], the “number of human iPS cell colonies” value was “increased significantly”.

B1: Wnt3a: Wnt3a purchased from R&D systems Inc., added to the medium (protein, UniProt P56704 19-352, looked up)
Protein Wnt-3a: SYPIWWSLAVGPQYSSLGSQPILCASIPGLVPKQLRFCRNYVEIMPSVAEGIKIGIQECQHQFRGRRWNCTTVHDSLAIFGPVLDKATRESAFVHAIASAGVAFAVTRSCAEGTAAICGCSSRHQGSPGKGWKWGGCSEDIEFGGMVSREFADARENRPDARSAMNRHNNEAGRQAIASHMHLKCKCHGLSGSCEVKTCWWSQPDFRAIGDFLKDKYDSASEMVVEKHRESRGWVETLRPRYTYFKVPTERDLVYYEASPNFCEPNPETGSFGTRDRTCNVSSHGIDGCDLLCCGRGHNARAERRREKCRCVFHWCCYVSCQECTRVYDVHTCK
Turning to B1, the “number of human iPS cell colonies” value is “increased significantly”.
